According to patent US7524847B2, “Fused 1,3-dihydro-imidazole ring compounds” (Eisai R&D Management Co., Ltd., priority 2002, dated 2009):
Structures can show the parent of a compound that is named as a salt.

How the values were obtained:
[1] = target: T1, DPP-IV obtained from pig kidney (Sus scrofa, UniProt P22411); experiment: Measurement of DPPIV-inhibiting activity (in vitro experiment); assay type: biochemical; conditions: DPP-IV from pig kidney 10 mU/mL, substrate Gly-Pro-p-nitroanilide 0.33 mM, 20 min preincubation, 20 min reaction, absorbance 405 nm
T1 construct: DPP-IV obtained from pig kidney; from tissue; host or cells: pig kidney
Protocol: DPP-IV obtained from pig kidney was dissolved in a reaction buffer (50 mM Tris-HCl pH7.4, 0.1% BSA) at 10 mU/mL, and 110 μL of this was used. 15 μL of the drug obtained from the aforementioned Examples was added, and this was incubated at room temperature for 20 minutes, and then 25 μL of a 2 mM solution of Gly-Pro-p-nitroanilide (final concentration 0.33 mM) was added to start the enzymatic reaction. The reaction time was 20 minutes, and 1 N phosphoric acid solution (25 μL) was added to stop the reaction.

[2] = test system: normal mice (male C57BL/6N); experiment: Effects on glucose tolerance in normal mice (in vivo experiment); conditions: 1 mg/kg oral, 30 min before oral glucose 2 g/kg; blood glucose AUC0-120; 0.5% MC group = 100%, NVP DPP728 (10 mg/kg) group = 0%; lower = better
Protocol: Animals: Male C57BL/6N mice (purchased from Japan Charles River) The test compounds were suspended in a 0.5% methylcellulose (MC) solution at the doses indicated below in Table 2. These test compounds and the NVP DPP728 (U.S. Pat. No. 6,011,155) suspension, or the 0.5% MC solution (the solvent control group), were administered orally at a dose of 10 mL/kg. 30 minutes later, a glucose solution was orally administered at a dose of 10 mL/kg. Glucose was orally administered at a dose of 2 g/kg. The tail vain of unanesthetized mice was cut with a razor blade to cause a small amount of bleeding immediately before administering the test substances or NVP DPP728, and immediately before, as well as 30, 60, and 120 minutes after, administration of the glucose solution. 10 μL of blood was collected, and this was mixed immediately with 0.6 M perchloric acid (140 μL). Glucose present in the supernatant obtained by centrifugation (1500 g, 10 minutes, 4° C., refrigerated centrifuge GS-6KR, Beckman) was measured using Glucose CII Test Wako (Wako Pure Chemicals). Results: In each of the groups to which 0.5% MC solution, NVP DPP728, and the test compounds were administered, the area under the curve of blood glucose vs. time was calculated over 0 to 120 minutes from the time of glucose administration (AUC0-120). Defining the AUC0-120 for the 0.5% MC solution-administered group as 100%, and the AUC0-120 for the NVP DPP728 (10 mg/kg)-administered group as 0%, the degree of improvement in glucose tolerance due to the test compound was calculated by the following equation: Degree of improvement in glucose tolerance (%)=(AUC0-120 of the test compound−AUC0-120 of the NVP DPP728 (10 mg/kg)-administered group)/(AUC0-120 of the 0.5% MC solution-administered group−AUC0-120 of the NVP DPP728 (10 mg/kg)-administered group)×100 The lower the % value, the better the degree of improvement in glucose tolerance.

T1 sequence (P22411 whole entry): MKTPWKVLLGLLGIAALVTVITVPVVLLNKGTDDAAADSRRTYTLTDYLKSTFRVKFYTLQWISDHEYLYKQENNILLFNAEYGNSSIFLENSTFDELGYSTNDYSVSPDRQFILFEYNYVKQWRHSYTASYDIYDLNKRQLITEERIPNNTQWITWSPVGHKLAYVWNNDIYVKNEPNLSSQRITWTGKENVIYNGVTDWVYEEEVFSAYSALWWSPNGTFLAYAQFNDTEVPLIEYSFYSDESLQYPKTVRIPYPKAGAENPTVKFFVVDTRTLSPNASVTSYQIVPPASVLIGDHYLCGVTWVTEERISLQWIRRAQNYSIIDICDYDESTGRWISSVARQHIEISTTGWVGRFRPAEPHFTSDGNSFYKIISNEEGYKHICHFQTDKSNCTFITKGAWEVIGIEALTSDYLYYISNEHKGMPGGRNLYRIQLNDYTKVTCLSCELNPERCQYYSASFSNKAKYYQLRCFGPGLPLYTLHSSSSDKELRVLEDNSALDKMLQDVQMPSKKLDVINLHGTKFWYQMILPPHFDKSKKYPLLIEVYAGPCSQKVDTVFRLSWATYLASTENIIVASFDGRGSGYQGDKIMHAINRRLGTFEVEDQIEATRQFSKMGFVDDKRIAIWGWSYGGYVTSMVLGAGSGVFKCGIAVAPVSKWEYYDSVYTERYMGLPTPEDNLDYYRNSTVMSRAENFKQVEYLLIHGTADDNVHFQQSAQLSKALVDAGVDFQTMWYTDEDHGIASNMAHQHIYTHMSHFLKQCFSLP

SMILES | IC50 [1] [nM] | Degree of improvement in glucose tolerance (%) [2] [%]
CC#CCn1c(=O)n(-c2cccnc2)c2nc(Cl)nc(N3CCNCC3)c21.O=C(O)C(F)(F)F [Example 46, 7-(2-Butynyl)-2-chloro-6-(piperazin-1-yl)-9-(pyridin-3-yl)-7,9-dihydropurin-8-one trifluoroacetic acid salt] | 42.6 | 37
C=CCn1c(=O)n(CC#CC)c2c(N3CCNCC3)nc(OCC)nc21 [Example 59, 9-Allyl-7-(2-butynyl)-2-ethoxy-6-(piperazin-1-yl)-7,9-dihydropurin-8-one trifluoroacetic acid salt] | 119 | 
Cn1c(=O)n(Cc2ccccc2)c2c(N3CCNCC3)nc(Cl)nc21 [Example 21, 7-Benzyl-2-chloro-9-methyl-6-(piperazin-1-yl)-7,9-dihydropurin-8-one trifluoroacetic acid salt] | 2450 | 
CC#CCn1c(=O)n(C)c2nc(Cl)nc(N3CCNCC3)c21 [Example 2, 7-(2-Butynyl)-2-chloro-9-methyl-6-(piperazin-1-yl)-7,9-dihydropurin-8-one trifluoroacetic acid salt] | 86.4 | 
CC#CCn1c(=O)n(-c2ccsc2)c2nc(Cl)nc(N3CCNCC3)c21 [Example 45, 7-(2-Butynyl)-2-chloro-6-(piperazin-1-yl)-9-(thiophen-3-yl)-7,9-dihydropurin-8-one trifluoroacetic acid salt] | 130 | 
CC#CCn1c(=O)n(-c2ccsc2)c2nc(OC)nc(N3CCNCC3)c21 [Example 57, 7-(2-Butynyl)-9-(thiophen-3-yl)-2-methoxy-6-(piperazin-1-yl)-7,9-dihydropurin-8-one trifluoroacetic acid salt] | 77.5 | 
CC#CCn1c(=O)[nH]c2nc(OC)nc(N3CCNCC3)c21 [Example 53, 7-(2-Butynyl)-2-methoxy-6-(piperazin-1-yl)-7,9-dihydropurin-8-one trifluoroacetic acid salt] | 1370 | 
CC#CCn1c(=O)n(Cc2ccccc2C#N)c2nc(OC)nc(N3CCNCC3)c21 [Example 50, 2-[7-(2-Butynyl)-2-methoxy-8-oxo-6-(piperazin-1-yl)-7,8-dihydropurin-9-ylmethyl]benzonitrile trifluoroacetic acid salt] | 3.65 | 
CC#CCn1c(=O)n(-c2ccoc2)c2ncnc(N3CCNCC3)c21 [Example 63, 7-(2-Butynyl)-9-(furan-3-yl)-6-(piperazin-1-yl)-7,9-dihydropurin-8-one trifluoroacetic acid salt] | 146 | 
CC#CCn1c(=O)n(CC(=O)OC)c2nc(Cl)nc(N3CCNCC3)c21 [Example 40, [7-(2-Butynyl)-2-chloro-8-oxo-6-(piperazin-1-yl)-7,8-dihydropurin-9-yl]acetic acid methyl ester trifluoroacetic acid salt] | 89.6 | 
CC=CCn1c(=O)n(C)c2nc(Cl)nc(N3CCNCC3)c21 [Example 20, 7-(2-Butenyl)-2-chloro-9-methyl-6-(piperazin-1-yl)-7,9-dihydropurin-8-one trifluoroacetic acid salt] | 642 | 
CC#CCn1c(=O)n(Cc2ccc(C#N)cc2)c2nc(OC)nc(N3CCNCC3)c21 [Example 49, 4-[7-(2-Butynyl)-2-methoxy-8-oxo-6-(piperazin-1-yl)-7,8-dihydropurin-9-ylmethyl]benzonitrile trifluoroacetic acid salt] | 40 | 
CC#CCn1c(=O)n(C)c2nc(OCc3ccccc3)nc(N3CCNCC3)c21 [Example 11, 2-Benzyloxy-7-(2-butynyl)-9-methyl-6-(piperazin-1-yl)-7,9-dihydropurin-8-one trifluoroacetic acid salt] | 179 | 
CC#CCn1c(=O)n(CCc2ccccc2)c2nc(Cl)nc(N3CCNCC3)c21 [Example 34, 7-(2-Butynyl)-2-chloro-9-(2-phenylethyl)-6-(piperazin-1-yl)-7,9-dihydropurin-8-one trifluoroacetic acid salt] | 14.8 | 
CC(C)=CCn1c(=O)n(C)c2nc(Cl)nc(N3CCNCC3)c21 [Example 19, 2-Chloro-9-methyl-7-(3-methyl-2-butenyl)-6-(piperazin-1-yl)-7,9-dihydropurin-8-one trifluoroacetic acid salt] | 5410 | 
CC#CCn1c(=O)n(C)c2nc(N(C)C)nc(N3CCNCC3)c21 [Example 4, 7-(2-Butynyl)-2-dimethylamino-9-methyl-6-(piperazin-1-yl)-7,9-dihydropurin-8-one trifluoroacetic acid salt] | 334 | 
CC#CCn1c(=O)n(C)c2nc(NC)nc(N3CCNCC3)c21 [Example 5, 7-(2-Butynyl)-9-methyl-2-methylamino-6-(piperazin-1-yl)-7,9-dihydropurin-8-one trifluoroacetic acid salt] | 172 | 
CC#CCn1c(=O)n(CC2CC2)c2nc(Cl)nc(N3CCNCC3)c21 [Example 38, 7-(2-Butynyl)-2-chloro-9-cyclopropylmethyl-6-(piperazin-1-yl)-7,9-dihydropurin-8-one trifluoroacetic acid salt] | 150 | 
CC#CCn1c(=O)n(C)c2nc(NCc3ccccc3)nc(N3CCNCC3)c21 [Example 17, 2-Benzylamino-7-(2-butynyl)-9-methyl-6-(piperazin-1-yl)-7,9-dihydropurin-8-one trifluoroacetic acid salt] | 263 | 

The next lines start with results.

IC50 [1] [nM] | SMILES | Degree of improvement in glucose tolerance (%) [2] [%]
224 | C=CCn1c(=O)n(CC#CC)c2c(N3CCNCC3)ncnc21.O=C(O)C(F)(F)F [Example 69, 9-Allyl-7-(2-butynyl)-6-(piperazin-1-yl)-7,9-dihydropurin-8-one trifluoroacetic acid salt] | 44.1
260 | CC#CCn1c(=O)n(CC(N)=O)c2ncnc(N3CCNCC3)c21 [Example 71, 2-[7-(2-Butynyl)-8-oxo-6-(piperazin-1-yl)-7,8-dihydropurin-9-yl]acetamide trifluoroacetic acid salt] | 
59.3 | CC#CCn1c(=O)n(-c2ccc(OC)nc2)c2ncnc(N3CCNCC3)c21 [Example 66, 7-(2-Butynyl)-9-(6-methoxy-pyridin-3-yl)-6-(piperazin-1-yl)-7,9-dihydropurin-8-one trifluoroacetic acid salt] | 
8130 | CC(C)=CCn1c(=O)n(C)c2ncnc(N3CCNCC3)c21 [Example 77, 9-Methyl-7-(3-methyl-2-butenyl)-6-(piperazin-1-yl)-7,9-dihydropurin-8-one trifluoroacetic acid salt] | 
48.4 | CC#CCn1c(=O)n(Cc2ccc(C#N)cc2)c2ncnc(N3CCNCC3)c21 [Example 73, 4-[7-(2-Butynyl)-8-oxo-6-(piperazin-1-yl)-7,8-dihydropurin-9-ylmethyl]benzonitrile trifluoroacetic acid salt] | 
3800 | Cn1c(=O)n(Cc2ccccc2)c2c(N3CCNCC3)ncnc21 [Example 78, 7-Benzyl-9-methyl-6-(piperazin-1-yl)-7,9-dihydropurin-8-one trifluoroacetic acid salt] | 
14 | CC#CCn1c(=O)n(CCc2ccccc2)c2ncnc(N3CCNCC3)c21 [Example 74, 7-(2-Butynyl)-9-phenethyl-6-(piperazin-1-yl)-7,9-dihydropurin-8-one trifluoroacetic acid salt] | 
49.8 | CC#CCn1c(=O)n(-c2ccc(=O)[nH]c2)c2ncnc(N3CCNCC3)c21 [Example 67, 7-(2-Butynyl)-9-(6-oxo-16-dihydro-pyridin-3-yl)-6-(piperazin-1-yl)-7,9-dihydropurin-8-one trifluoroacetic acid salt] | 
141 | CC#CCn1c(=O)n(CC2CC2)c2ncnc(N3CCNCC3)c21 [Example 72, 7-(2-Butynyl)-9-cyclopropylmethyl-6-(piperazin-1-yl)-7,9-dihydropurin-8-one trifluoroacetic acid salt] | 
4.2 | CC#CCn1c(=O)n(Cc2ccccc2C#N)c2ncnc(N3CCNCC3)c21 [Example 79, 2-[7-(2-Butynyl)-8-oxo-6-piperazin-1-yl-7,8-dihydropurin-9-ylmethyl]benzonitrile trifluoroacetic acid salt] | 
5230 | CC#CCn1c(=O)n(C)c2ccnc(N3CCNCC3)c21 [Example 82, 3-(2-Butynyl)-1-methyl-4-piperazin-1-yl-1,3-dihydroimidazo[4.5-c]pyridin-2-one] | 
